Test results as given in patent US9321722B2, “Bis-indolic derivatives, their uses in particular as antibacterials” (UNIVERSITE JOSEPH FOURIER, priority 2011, dated 2016).
≈ marks a conversion by molar mass, not a printed value.

Legend:
S. aureus ATCC 6538 = assay: MIC microdilution (Table I-1); format: cell-based, Staphylococcus aureus; settings: Staphylococcus aureus, ATCC6538, read after 18 hours, read-out: MIC
Description: (§1) The microdilution method recommended by the Clinical and Laboratory Standard Institute [M07-A8, Vol. 29, N^o 2] was used. The activity of indolic compounds was tested against 29 bacterial strains belonging to 17 different species and 12 different genera (Staphylococcus, Streptococcus, Enterococcus, Listeria, Bacillus, Haemophilus, Escherichia, Klebsiella, Enterobacter, Serratia, Pseudomonas, and Acinetobacter). Bacterial inocula were prepared in Mueller Hinton broth (MH2, bioMerieux, Marcy L'Etoile, France), supplemented with 10% sheep blood for fastidious species (i.e., Streptococcus pneumoniae and Haemophilus influenzae). They were dispensed in 96 well microtiter plates (5×10^5 CFU/ml of final inoculum). Indolic compounds were added to the wells as to obtain two-fold serial concentrations (0.50-128 mg/L of final concentrations). Plates were incubated at 37° C. in ambient air, or at 37° C. in 5% CO2 enriched atmosphere for fastidious species. […] Drug-free cultures served as growth controls. Cultures receiving gentamicin, ciprofloxacin or cefotaxime served as positive controls.

[1] = test system: S. aureus CIP 65.25 (MRSA); assay: MIC microdilution (Table I-1); format: cell-based, Staphylococcus aureus; settings: Staphylococcus aureus, read after 18 hours, read-out: MIC
Description: as §1

[2] = test system: S. aureus ATCC 33592 (MRSA); assay: MIC microdilution (Table I-1); format: cell-based, Staphylococcus aureus; settings: Staphylococcus aureus, read after 18 hours, read-out: MIC
Description: as §1

S. aureus ATCC 29213 = assay: MIC microdilution (Table I-1); format: cell-based, Staphylococcus aureus; settings: Staphylococcus aureus, ATCC29213, read after 18 hours, read-out: MIC
Description: as §1

S. aureus SA-1199B = assay: MIC microdilution (Table I-1); format: cell-based, Staphylococcus aureus; settings: Staphylococcus aureus, SA1199B, 18 h
Description: as §1

S. aureus ATCC 9144 = assay: MIC microdilution (Table I-1); format: cell-based, Staphylococcus aureus; settings: Staphylococcus aureus, ATCC9144, read after 18 hours, read-out: MIC
Description: as §1

S. aureus CIP 65.6 = assay: MIC microdilution (Table I-1); format: cell-based, Staphylococcus aureus; settings: Staphylococcus aureus, CIP65, read after 18 hours, read-out: MIC
Description: as §1

[3] = test system: S. aureus ATCC 106414 (VISA); assay: MIC microdilution (Table I-1); format: cell-based, Staphylococcus aureus; settings: Staphylococcus aureus, read after 18 hours, read-out: MIC
Description: as §1

S. aureus CIP 103428 = assay: MIC microdilution (Table I-1); format: cell-based, Staphylococcus aureus; settings: Staphylococcus aureus, CIP103428, read after 18 hours, read-out: MIC
Description: as §1

[4] = test system: S. agalactiae (group B) ATCC 12400; assay: MIC microdilution (Table I-1); format: cell-based; settings: Streptococcus agalactiae, ATCC12400, read after 18 hours, read-out: MIC
Description: as §1

[5] = test system: Enterobacter cloacae ATCC 13047; assay: MIC microdilution (Table I-1); format: cell-based; settings: ATCC13047, read after 18 hours
Description: as §1

S. mitis CIP 103335 = assay: MIC microdilution (Table I-1); format: cell-based; settings: Streptococcus mitis, CIP103335, read after 18 hours, read-out: MIC
Description: as §1

E. faecium CIP 54.32 = assay: MIC microdilution (Table I-1); format: cell-based; settings: Enterococcus faecium, CIP54, read after 18 hours, read-out: MIC
Description: as §1

[6] = test system: Serratia marcescens CIP 103551; assay: MIC microdilution (Table I-1); format: cell-based; settings: CIP103551, read after 18 hours
Description: as §1

[7] = test system: Escherichia coli ATCC 25922; assay: MIC microdilution (Table I-1); format: cell-based; settings: ATCC25922, read after 18 hours
Description: as §1

[8] = test system: S. pyogenes (group A) CIP 104226; assay: MIC microdilution (Table I-1); format: cell-based; settings: Streptococcus pyogenes, CIP104226, read after 18 hours, read-out: MIC
Description: as §1

S. pneumoniae ATCC 49619 = assay: MIC microdilution (Table I-1); format: cell-based; settings: Streptococcus pneumoniae, ATCC49619, read after 18 hours
Description: as §1

[9] = test system: Haemophilus influenzae ATCC 49766; assay: MIC microdilution (Table I-1); format: cell-based; settings: ATCC49766; Haemophilus influenzae ATCC 49766; read after 18 hours; read-out: MIC
Description: as §1

E. faecalis ATCC 29212 = assay: MIC microdilution (Table I-1); format: cell-based; settings: Enterococcus faecalis, ATCC29212, read after 18 hours, read-out: MIC
Description: as §1

[10] = test system: Bacillus subtilis CIP 5262; assay: MIC microdilution (Table I-1); format: cell-based; settings: CIP5262, read after 18 hours, read-out: MIC
Description: as §1

[11] = test system: Listeria innocua CIP 80.11; assay: MIC microdilution (Table I-1); format: cell-based; settings: CIP80, read after 18 hours, read-out: MIC
Description: as §1

[12] = test system: Pseudomonas aeruginosa CIP 5933; assay: MIC microdilution (Table I-1); format: cell-based; settings: CIP5933, read after 18 hours
Description: as §1

S. aureus ATCC 25923 = assay: MIC microdilution (Table I-1); format: cell-based; settings: Staphylococcus aureus, ATCC25923, read after 18 hours
Description: as §1

[13] = test system: Klebsiella pneumoniae ATCC 35657; assay: MIC microdilution (Table I-1); format: cell-based; settings: ATCC35657, read after 18 hours, read-out: MIC
Description: as §1

[14] = test system: Acinetobacter baumanii ATCC 19606; assay: MIC microdilution (Table I-1); format: cell-based; settings: Acinetobacter baumannii, ATCC19606, read after 18 hours
Description: as §1

[15] = test system: HCT116 (human colon tumor); assay: In vitro cytotoxicity; format: cell-based; settings: for inhibition at 10 µM: HCT-116, HCT116, 10^−5 M, read-out: % of cellular growth inhibition; for inhibition at 1 µM: HCT-116, HCT116, 10^−6 M, read-out: % of cellular growth inhibition (converted)
Description: (§2) In vitro cytotoxicity was assayed on three cell lines—KB (human mouth carcinoma), MCR5 (human lung fibroblast) and HCT116 (human colon tumor). Results are presented in table III as % of cellular growth inhibition in presence of 10^−5 M and 10^−6 M of the tested bis-indolic derivatives.

[16] = test system: MRC5 (human lung fibroblast); assay: In vitro cytotoxicity; format: cell-based; settings: for inhibition at 10 µM: MRC5, 10^−5 M, read-out: % of cellular growth inhibition; for inhibition at 1 µM: MRC5, 10^−6 M, read-out: % of cellular growth inhibition (converted)
Description: as §2

[17] = test system: KB (human mouth carcinoma); assay: In vitro cytotoxicity; format: cell-based; settings: KB; for inhibition at 10 µM: 10^−5 M, read-out: % of cellular growth inhibition; for inhibition at 1 µM: 10^−6 M, read-out: % of cellular growth inhibition (converted)
Description: as §2

SMILES | MIC (S. aureus ATCC 6538) | MIC [1] | MIC [2] | MIC (S. aureus ATCC 29213) | MIC (S. aureus SA-1199B) | MIC (S. aureus ATCC 9144) | MIC (S. aureus CIP 65.6) | MIC [3] | MIC (S. aureus CIP 103428) | MIC [5] | MIC [6] | MIC [7] | MIC [12] | MIC (S. aureus ATCC 25923) | MIC [13] | MIC [14] | inhibition at 10 µM [15] | inhibition at 1 µM [15] | inhibition at 10 µM [16] | inhibition at 1 µM [16] | also measured
O=C(C(=O)N1CCOCC1c1c[nH]c2ccccc12)c1c[nH]c2ccccc12 (stereo not shown) [Compound 6b, 1-(3-(1H-Indol-3-yl)morpholino)-2-(1H-indol-3-yl)ethane-1,2-dione] | > 128 µg/mL | > 128 µg/mL | > 128 µg/mL | > 128 µg/mL | > 128 µg/mL | > 128 µg/mL | > 128 µg/mL | > 128 µg/mL | > 128 µg/mL | > 128 µg/mL | > 128 µg/mL | > 128 µg/mL | > 128 µg/mL | > 128 µg/mL | > 128 µg/mL | > 128 µg/mL | 21 ± 10% | 2% | 15 ± 11% | 0% | MIC [4]: > 128 µg/mL; MIC (S. mitis CIP 103335): > 128 µg/mL; MIC (E. faecium CIP 54.32): > 128 µg/mL; MIC [8]: > 128 µg/mL; MIC (S. pneumoniae ATCC 49619): > 128 µg/mL; MIC [9]: > 128 µg/mL; MIC (E. faecalis ATCC 29212): > 128 µg/mL; MIC [10]: > 128 µg/mL; MIC [11]: > 128 µg/mL; inhibition at 10 µM [17]: 9 ± 4%; inhibition at 1 µM [17]: 0%
O=C(C(=O)N1CCCCC1c1c[nH]c2ccc(Br)cc12)c1c[nH]c2ccc(Br)cc12 (stereo not shown) [Compound 6d, 1-(5-Bromo-1H-indol-3-yl)-2-(2-(5-bromo-1H-indol-3-yl)piperidin-1-yl)ethane-1,2-dione] | > 128 µg/mL | > 128 µg/mL | > 128 µg/mL | 2 to 4 µg/mL (≈ 3.78 to 7.56 µM) | > 128 µg/mL | > 128 µg/mL | > 128 µg/mL | > 128 µg/mL | > 128 µg/mL | > 128 µg/mL | > 128 µg/mL | > 128 µg/mL | > 128 µg/mL | > 128 µg/mL | > 128 µg/mL | > 128 µg/mL | 41 ± 4% | 4% | 0% | 0% | MIC [4]: > 128 µg/mL; MIC (S. mitis CIP 103335): > 128 µg/mL; MIC (E. faecium CIP 54.32): > 128 µg/mL; MIC [8]: > 128 µg/mL; MIC (S. pneumoniae ATCC 49619): > 128 µg/mL; MIC [9]: > 128 µg/mL; MIC (E. faecalis ATCC 29212): > 128 µg/mL; MIC [10]: > 128 µg/mL; MIC [11]: > 128 µg/mL; inhibition at 10 µM [17]: 53 ± 5%; inhibition at 1 µM [17]: 0%
CC(C)(C)OC(=O)NCC(NC(=O)C(=O)c1c[nH]c2ccc(Br)cc12)c1c[nH]c2ccc(Br)cc12 (stereo not shown) [Compound 4, tert-Butyl(2-(5-bromo-1H-indol-3-yl)-2-(2-(5-bromo-1H-indol-3-yl)-2-oxoacetamido)ethyl) carbamate] | 0.8 µg/mL (≈ 1.32 µM) | 1.6 µg/mL (≈ 2.65 µM) | 0.8 µg/mL (≈ 1.32 µM) | 0.8 µg/mL (≈ 1.32 µM) | 1.6 µg/mL (≈ 2.65 µM) | 0.8 µg/mL (≈ 1.32 µM) | 0.8 µg/mL (≈ 1.32 µM) | 0.8 µg/mL (≈ 1.32 µM) | 1.6 µg/mL (≈ 2.65 µM) | > 128 µg/mL | > 128 µg/mL | > 128 µg/mL | > 128 µg/mL | 1.6 µg/mL (≈ 2.65 µM) | > 128 µg/mL | > 128 µg/mL | 58 ± 4% | 0% | 51 ± 9% | 0% | inhibition at 10 µM [17]: 76 ± 5%; inhibition at 1 µM [17]: 0%
O=C(C(=O)N1CCCCC1c1c[nH]c2ccccc12)c1c[nH]c2ccccc12 (stereo not shown) [Compound 6a, 1-(2-(1H-Indol-3-yl)piperidin-1-yl)-2-(1H-indol-3-yl)ethane-1,2-dione] | > 128 µg/mL | > 128 µg/mL | > 128 µg/mL | > 128 µg/mL | > 128 µg/mL | > 128 µg/mL | > 128 µg/mL | > 128 µg/mL | > 128 µg/mL | > 128 µg/mL | > 128 µg/mL | > 128 µg/mL | > 128 µg/mL | > 128 µg/mL | > 128 µg/mL | > 128 µg/mL | 37 ± 6% | 0% | 28 ± 9% | 0% | MIC [4]: > 128 µg/mL; MIC (S. mitis CIP 103335): > 128 µg/mL; MIC (E. faecium CIP 54.32): > 128 µg/mL; MIC [8]: > 128 µg/mL; MIC (S. pneumoniae ATCC 49619): > 128 µg/mL; MIC [9]: > 128 µg/mL; MIC (E. faecalis ATCC 29212): > 128 µg/mL; MIC [10]: > 128 µg/mL; MIC [11]: > 128 µg/mL; inhibition at 10 µM [17]: 20 ± 13%; inhibition at 1 µM [17]: 0%
